System: Plasmodium falciparum Dd2 asexual blood stage parasites
Assay: microbe, parasite or virus in culture
Set-up: species or system Plasmodium falciparum Dd2 in human erythrocytes; single determination (one 11-point concentration-response curve)
Details: Plasmodium falciparum, DD2, Erythrocyte, 72 h; read-out: AC50

Compound	AC50 [nM]
COc1ccc(CCNc2nc3cc(OC)c(OC)cc3c3nc(-c4ccccc4)nn23)cc1OC [NCGC00112847-01]	2370
COc1cc2nc(NCCC(C)C)n3nc(-c4ccccc4)nc3c2cc1OC [NCGC00112851-01]	422
COc1cc2nc(NCc3ccc(C)cc3)n3nc(-c4ccccc4)nc3c2cc1OC [NCGC00112855-01]	266
CCOCCCNc1nc2cc(OC)c(OC)cc2c2nc(-c3ccccc3)nn12 [NCGC00112857-01]	211
COc1cc2nc(NCCc3cccc(C)c3)n3nc(-c4ccccc4)nc3c2cc1OC [NCGC00112859-01]	841
CCOc1ccc(-c2cn3c(n2)sc2cc(C(=O)NC(C)C45CC6CC(CC(C6)C4)C5)ccc23)cc1 (stereo not shown) [NCGC00113230-01]	5960
CCC[S+](=O)([O-])c1nc([S+](=O)([O-])c2ccc(C)cc2)c(NCCCOC(C)C)s1 [NCGC00113582-01]	2110
Cc1ccc(C(=O)N2CCC(c3c[nH]c4ccccc34)(c3c[nH]c4ccccc34)CC2)cc1 [NCGC00113768-01]	8410
COc1ccc(-c2nc(Cn3c(SCc4ccccc4F)nc4ccncc43)c(C)o2)cc1OC [NCGC00113862-01]	8410
CCCCN(CCCC)CC(O)Cn1cc(/C=C/C(=O)c2ccccc2)c2ccccc21 (stereo not shown) [NCGC00114887-01]	1680
CCCN(CCC)CC(O)Cn1cc(/C=C/C(=O)c2ccc(C)cc2)c2ccccc21 (stereo not shown) [NCGC00114909-01]	4730
Cc1oc2ccc(O)c(CN3CCCC(C)C3)c2c1C(=O)Nc1ccccc1 (stereo not shown) [NCGC00115528-01]	2110
COc1ccc(NC(=O)c2c(C)oc3ccc(O)c(CN4CCCC(C)C4)c23)cc1Cl (stereo not shown) [NCGC00115530-01]	944
COc1ccc(NC(=O)c2c(C)oc3ccc(O)c(CN4CCN(Cc5ccccc5)CC4)c23)cc1 [NCGC00115648-01]	2660
Cc1oc2ccc(O)c(CN3CCN(Cc4ccccc4)CC3)c2c1C(=O)Nc1cccc(Cl)c1C [NCGC00115656-01]	596
Cc1ccc(NC(=O)c2c(C)oc3ccc(O)c(CN4CCCCCC4)c23)c(C)c1 [NCGC00115658-01]	4730
COc1ccc(NC(=O)c2c(C)oc3ccc(O)c(CN4CCCCCC4)c23)cc1Cl [NCGC00115677-01]	1880
Cc1ccc(NC(=O)c2c(C)oc3ccc(O)c(CN4CCCCCC4)c23)cc1 [NCGC00115683-01]	2110
Cc1oc2ccc(O)c(CN3CCCCCC3)c2c1C(=O)Nc1cccc(Cl)c1C [NCGC00115685-01]	841

Compound	AC50 [nM]
Cc1ccc(NC(=O)c2c(C)oc3ccc(O)c(CN(C)Cc4ccccc4)c23)c(C)c1 [NCGC00115687-01]	5960
Cc1oc2ccc(O)c(CN(C)Cc3ccccc3)c2c1C(=O)Nc1ccccc1 [NCGC00115689-01]	2370
Cc1oc2ccc(O)c(CN(C)Cc3ccccc3)c2c1C(=O)Nc1cccc(C(F)(F)F)c1 [NCGC00115691-01]	2110
Cc1ccccc1NC(=O)c1c(C)oc2ccc(O)c(CN(C)Cc3ccccc3)c12 [NCGC00115709-01]	2370
CCN(Cc1ccccc1)Cc1c(O)ccc2oc(C)c(C(=O)Nc3ccccc3C)c12 [NCGC00115715-01]	4730
O=C(Nc1sc2c(c1C(=O)NCc1ccco1)CCCC2)c1cc(=O)c2ccccc2o1 [NCGC00115806-01]	10600
CCOc1ccc(-c2nonc2NC(=O)c2ccc(C)cc2)cc1OCC [NCGC00116031-01]	1680
CCCOc1ccc(-c2nonc2NC(=O)c2cc(OC)c(OC)c(OC)c2)cc1OCCC [NCGC00116043-01]	5960
O=C(c1cccc(Cl)c1)N1CCC(c2nc(O)c3nnn(Cc4ccc(F)cc4F)c3n2)CC1 [NCGC00116055-01]	5960
CC(C)(C)c1ccc(C(=O)N2CCCC(c3nc(O)c4nnn(Cc5cccc(F)c5)c4n3)C2)cc1 (stereo not shown) [NCGC00116087-01]	16800
Cc1cccc(Cn2nnc3c(O)nc(C4CCCN(C(=O)c5ccc(C(C)(C)C)cc5)C4)nc32)c1 (stereo not shown) [NCGC00116091-01]	2660
Cc1ccc(CN2COc3ccc4c(-c5ccccc5)cc(=O)oc4c3C2)cc1 [NCGC00116312-01]	841
Cc1cc2c(c3oc(=O)c4ccccc4c13)CN(Cc1ccc(F)cc1)CO2 [NCGC00116338-01]	2660
O=c1cc(-c2ccccc2)c2ccc3c(c2o1)CN(Cc1ccccc1)CO3 [NCGC00116340-01]	2660
O=c1cc(-c2ccccc2)c2ccc3c(c2o1)CN(Cc1cccc(Cl)c1)CO3 [NCGC00116370-01]	841
COc1ccc(N2CCN(c3oc(/C=C/c4cc(OC)c(OC)c(OC)c4)nc3C#N)CC2)cc1 [NCGC00116464-01]	2660
Cc1ccc([S+](=O)([O-])c2nc([S+](=O)([O-])c3ccccc3)sc2NCCCOC(C)C)cc1 [NCGC00116818-01]	596
CC(C)OCCCNc1sc([S+](=O)([O-])c2ccccc2)nc1[S+](=O)([O-])c1ccc(Cl)cc1 [NCGC00116822-01]	266
